Source: ChEMBL document CHEMBL5385949, “Transient Receptor Potential Melastatin 7 (TRPM7) Ion Channel Inhibitors: Preliminary SAR and Conformational Studies of Xenicane Diterpenoids from the Hawaiian Soft Coral Sarcothelia edmondsoni” (J Nat Prod, 2024)
Active and inactive are the calls of the source. The rule behind the calls is not given here.

Assays:
[1] = target: T1, Transient receptor potential cation channel subfamily M member 7 (Mus musculus, UniProt Q923J1); format: cell-based, HEK293
Description: Inhibition of FLAG-tagged mouse TRPM7 transfected in HEK293 cells assessed as inhibition of channel-mediated Mn2+ influx incubated for ~15 mins and measured for 90 secs by Fura-2-dye based fluorescence analysis

[2] = target: T1, Transient receptor potential cation channel subfamily M member 7; experiment: Inhibition of mouse TRPM7 transfected in HEK293 cells assessed as inhibition of channel current in presence of 780 uM free intracellular Mg2+ by whole cell patch clamp analysis; format: cell-based
[3] = target: T1, Transient receptor potential cation channel subfamily M member 7; experiment: Inhibition of mouse TRPM7 transfected in HEK293 cells assessed as inhibition of channel current in absence of intracellular Mg2+ by whole cell patch clamp analysis; format: cell-based
[4] = target: T1, Transient receptor potential cation channel subfamily M member 7; experiment: Inhibition of mouse TRPM7 transfected in HEK293 cells assessed as inhibition of channel current in presence of 300 uM free intracellular Mg2+ by whole cell patch clamp analysis; format: cell-based
[5] = target: T1, Transient receptor potential cation channel subfamily M member 7; experiment: Inhibition of HA-tagged mouse TRPM7 transfected in HEK293 cells assessed as inhibition of channel current by whole cell patch clamp analysis; format: cell-based
[6] = target: T2, Transient receptor potential cation channel subfamily M member 7 (Homo sapiens, UniProt Q96QT4); experiment: Inhibition of human TRPM7 transfected in HEK293 cells assessed as inhibition of channel current by whole cell patch clamp analysis; format: cell-based
T2 sequence (Q96QT4 whole entry): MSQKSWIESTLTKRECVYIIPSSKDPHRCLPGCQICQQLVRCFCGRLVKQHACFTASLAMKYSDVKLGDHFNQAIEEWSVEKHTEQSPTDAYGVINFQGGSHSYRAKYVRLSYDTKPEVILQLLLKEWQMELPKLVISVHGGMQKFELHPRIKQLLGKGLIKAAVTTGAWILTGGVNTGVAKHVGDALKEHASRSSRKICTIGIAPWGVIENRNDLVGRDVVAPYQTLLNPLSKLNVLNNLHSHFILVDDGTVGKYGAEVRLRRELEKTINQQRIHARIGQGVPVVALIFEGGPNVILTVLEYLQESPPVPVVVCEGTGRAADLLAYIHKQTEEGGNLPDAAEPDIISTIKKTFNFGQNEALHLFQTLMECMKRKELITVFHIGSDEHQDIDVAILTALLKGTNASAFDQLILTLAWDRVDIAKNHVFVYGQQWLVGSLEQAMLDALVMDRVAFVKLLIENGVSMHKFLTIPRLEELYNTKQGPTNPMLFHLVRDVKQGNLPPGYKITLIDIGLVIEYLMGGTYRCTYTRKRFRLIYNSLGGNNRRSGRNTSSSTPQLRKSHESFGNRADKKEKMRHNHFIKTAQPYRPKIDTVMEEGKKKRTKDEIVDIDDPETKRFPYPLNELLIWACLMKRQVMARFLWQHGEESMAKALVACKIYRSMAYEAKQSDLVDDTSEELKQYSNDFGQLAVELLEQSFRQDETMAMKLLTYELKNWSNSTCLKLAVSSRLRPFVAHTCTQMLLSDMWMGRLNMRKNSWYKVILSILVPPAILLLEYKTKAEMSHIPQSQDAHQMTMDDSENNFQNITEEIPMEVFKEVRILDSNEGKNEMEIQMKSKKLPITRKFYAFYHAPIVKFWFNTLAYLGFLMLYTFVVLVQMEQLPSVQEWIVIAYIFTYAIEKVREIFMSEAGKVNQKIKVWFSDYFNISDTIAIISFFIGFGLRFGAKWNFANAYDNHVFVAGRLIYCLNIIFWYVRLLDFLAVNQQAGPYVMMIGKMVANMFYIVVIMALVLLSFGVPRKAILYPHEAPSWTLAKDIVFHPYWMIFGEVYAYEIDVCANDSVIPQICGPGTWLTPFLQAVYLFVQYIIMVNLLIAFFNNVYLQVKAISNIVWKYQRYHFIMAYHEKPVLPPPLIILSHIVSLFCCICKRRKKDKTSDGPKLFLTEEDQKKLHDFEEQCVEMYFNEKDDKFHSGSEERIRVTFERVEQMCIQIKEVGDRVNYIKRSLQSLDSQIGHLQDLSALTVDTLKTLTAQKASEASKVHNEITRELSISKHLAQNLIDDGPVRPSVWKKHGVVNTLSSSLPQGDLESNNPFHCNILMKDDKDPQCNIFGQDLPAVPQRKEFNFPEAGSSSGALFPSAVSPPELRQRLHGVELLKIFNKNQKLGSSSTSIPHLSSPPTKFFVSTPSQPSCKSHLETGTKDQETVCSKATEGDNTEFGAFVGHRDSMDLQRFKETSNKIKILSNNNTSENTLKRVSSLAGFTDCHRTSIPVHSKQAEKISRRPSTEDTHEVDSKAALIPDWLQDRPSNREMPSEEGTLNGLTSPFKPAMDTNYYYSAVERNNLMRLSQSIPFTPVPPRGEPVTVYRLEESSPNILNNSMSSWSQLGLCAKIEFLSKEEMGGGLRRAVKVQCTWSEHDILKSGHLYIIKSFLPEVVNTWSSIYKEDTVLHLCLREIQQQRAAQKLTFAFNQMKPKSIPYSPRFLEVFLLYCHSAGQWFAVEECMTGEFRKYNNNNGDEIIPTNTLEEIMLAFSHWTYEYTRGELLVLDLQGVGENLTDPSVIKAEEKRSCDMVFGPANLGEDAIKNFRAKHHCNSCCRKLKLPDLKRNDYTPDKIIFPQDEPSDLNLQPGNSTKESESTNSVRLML

[7] = target: T1, Transient receptor potential cation channel subfamily M member 7; experiment: Inhibition of mouse TRPM7 expressed in HEK293 cells assessed as inhibition of channel current in presence of 700 uM intracellular Mg2+ by whole cell patch clamp analysis; format: cell-based
[8] = 1-Octanol/water partition coefficient, log P of the compound by LC-MS analysis; format: physicochemical
[9] = target: T2, Transient receptor potential cation channel subfamily M member 7; experiment: Irreversible covalent inhibition of human TRPM7 transfected in Tet-inducible HEK293-T-REx cells assessed as inhibition of channel current at 10 uM incubated for 50 to 150 secs and measured for 10 mins after drug wash-out by whole cell patch clamp analysis; format: cell-based; settings: time 50-150 sec
[10] = target: T2, Transient receptor potential cation channel subfamily M member 7; experiment: Covalent inhibition of human TRPM7 transfected in Tet-inducible HEK293-T-REx cells assessed as inhibition of channel current at 10 uM incubated for 50 to 150 secs by whole cell patch clamp analysis; format: cell-based; settings: time 50-150 sec
[11] = target: T2, Transient receptor potential cation channel subfamily M member 7; experiment: Inhibition of human TRPM7 transfected in Tet-inducible HEK293-T-REx cells assessed as inhibition of channel current in presence of 780 uM intracellular Mg2+ by whole cell patch clamp analysis; format: cell-based
[12] = target: T1, Transient receptor potential cation channel subfamily M member 7; experiment: Inhibition of mouse TRPM7 transfected in HEK293T cells assessed as inhibition of channel current in absence of intracellular Mg2+ by whole cell patch clamp analysis; format: cell-based

T1 sequence (Q923J1 whole entry): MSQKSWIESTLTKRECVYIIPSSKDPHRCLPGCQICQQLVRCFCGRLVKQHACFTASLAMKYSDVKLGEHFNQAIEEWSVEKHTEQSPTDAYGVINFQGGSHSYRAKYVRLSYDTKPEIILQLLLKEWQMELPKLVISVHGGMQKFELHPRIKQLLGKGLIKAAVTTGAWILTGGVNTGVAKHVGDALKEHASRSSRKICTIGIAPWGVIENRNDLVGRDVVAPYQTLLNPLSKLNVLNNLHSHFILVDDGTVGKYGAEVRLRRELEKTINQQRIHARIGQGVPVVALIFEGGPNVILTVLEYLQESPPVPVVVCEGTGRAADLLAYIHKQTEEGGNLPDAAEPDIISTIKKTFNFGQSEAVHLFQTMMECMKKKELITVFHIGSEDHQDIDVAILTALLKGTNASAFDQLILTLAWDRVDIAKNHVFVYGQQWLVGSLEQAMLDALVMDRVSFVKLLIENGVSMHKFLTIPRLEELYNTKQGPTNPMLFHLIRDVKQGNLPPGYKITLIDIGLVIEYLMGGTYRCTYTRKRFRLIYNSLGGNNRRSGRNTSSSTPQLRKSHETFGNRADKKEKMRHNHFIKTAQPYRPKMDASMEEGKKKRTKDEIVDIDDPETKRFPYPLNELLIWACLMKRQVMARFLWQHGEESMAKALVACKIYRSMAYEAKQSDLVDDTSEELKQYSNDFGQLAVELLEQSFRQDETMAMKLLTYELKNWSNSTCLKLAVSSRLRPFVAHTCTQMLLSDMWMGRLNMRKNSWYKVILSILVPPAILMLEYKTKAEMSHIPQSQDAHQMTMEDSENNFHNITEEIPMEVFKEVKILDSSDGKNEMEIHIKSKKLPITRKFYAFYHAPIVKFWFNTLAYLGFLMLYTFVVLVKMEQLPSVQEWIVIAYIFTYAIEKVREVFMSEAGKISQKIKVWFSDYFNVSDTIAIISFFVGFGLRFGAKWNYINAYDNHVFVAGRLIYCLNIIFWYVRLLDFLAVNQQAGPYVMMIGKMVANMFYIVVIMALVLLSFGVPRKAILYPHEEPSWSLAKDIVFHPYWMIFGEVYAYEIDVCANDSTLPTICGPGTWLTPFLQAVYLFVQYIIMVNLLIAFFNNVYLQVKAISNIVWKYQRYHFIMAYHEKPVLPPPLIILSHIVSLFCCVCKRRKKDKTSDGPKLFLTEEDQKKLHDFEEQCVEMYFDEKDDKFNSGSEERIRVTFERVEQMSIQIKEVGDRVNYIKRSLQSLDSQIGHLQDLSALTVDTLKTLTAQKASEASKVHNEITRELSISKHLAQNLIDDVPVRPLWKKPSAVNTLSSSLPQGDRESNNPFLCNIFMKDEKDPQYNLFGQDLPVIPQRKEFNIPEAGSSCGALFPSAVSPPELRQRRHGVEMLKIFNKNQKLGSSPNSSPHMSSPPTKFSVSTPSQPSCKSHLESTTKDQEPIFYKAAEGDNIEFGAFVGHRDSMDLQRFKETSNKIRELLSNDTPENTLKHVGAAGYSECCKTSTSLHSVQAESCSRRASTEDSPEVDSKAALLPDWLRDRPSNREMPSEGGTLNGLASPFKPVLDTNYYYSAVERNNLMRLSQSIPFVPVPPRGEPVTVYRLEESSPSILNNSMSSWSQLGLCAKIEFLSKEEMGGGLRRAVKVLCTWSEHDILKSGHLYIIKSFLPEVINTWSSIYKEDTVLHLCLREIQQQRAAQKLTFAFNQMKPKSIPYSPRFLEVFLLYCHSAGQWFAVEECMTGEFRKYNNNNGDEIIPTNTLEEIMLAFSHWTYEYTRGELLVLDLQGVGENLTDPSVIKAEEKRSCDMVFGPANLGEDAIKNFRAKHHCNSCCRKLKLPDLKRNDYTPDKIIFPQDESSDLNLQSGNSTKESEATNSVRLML

`NCCOB(c1ccccc1)c1ccccc1` gave an IC50 [1] of 22 µM.

In the case of `C=C1CC[C@@H]2O[C@@]2(C)CC[C@@H]2C(C=O)=C[C@@H](/C=C(\C)COC(C)=O)[C@H](O)[C@@H]12`, the IC50 [1] is reported as > 150 µM.

Work on `C=C1[C@@H]2[C@@H](OC(C)=O)OC=C([C@H](C/C=C(\C)COC(C)=O)OC(C)=O)[C@H]2CC[C@]2(C)O[C@H]2C[C@H]1O` yielded an IC50 [1] of 13 µM.

In the case of `C=C1CC/C=C(\C)CC[C@H]2[C@H]1[C@H]1O[C@H](O)[C@]2(/C=C/C=C(\C)COC(C)=O)O1`, the IC50 [1] is reported as > 150 µM.

In the case of `c1ccc2c(c1)CCC[C@H]2Nc1nc2ccccc2[nH]1`, the IC50 [2] is reported as 3.9 µM, the IC50 [3] is reported as 1.6 µM and the IC50 [4] is reported as 5.9 µM.

For `CCCCCCCCc1ccc(CCC(N)(CO)CO)cc1` [FINGOLIMOD], the IC50 [5] was 0.72 µM.

Work on `CCCCCc1cc(O)c(C/C=C(\C)CCC=C(C)C)c(O)c1C(=O)O` [CANNABIGEROLIC ACID] yielded an IC50 [6] of 2.7 µM.

`C=C1CC/C=C(\C)CC[C@@H]2C([C@H](C/C=C(\C)COC(C)=O)OC(C)=O)=CO[C@H](OC(C)=O)[C@@H]12` gave an IC50 [7] of 0.016 µM, a logP [8] of 3.8 and an IC50 [1] of 20 µM. The inhibition [9] was “Active” and the inhibition [10] was “Active”.

For `C=C1CC[C@@H]2O[C@@]2(C)CC[C@@H]2C([C@H](C/C=C(\C)COC(C)=O)OC(C)=O)=CO[C@H](OC(C)=O)[C@@H]12`, the IC50 [1] was 33 µM.

With `C=C1[C@@H]2[C@@H](OC(C)=O)OC=C([C@H](C/C=C(\C)COC(C)=O)OC(C)=O)[C@H]2CC/C(C)=C/C[C@H]1O` the IC50 [1] was 12 µM and the IC50 [11] was 0.09 µM.

For `C=C1CC/C=C(\C)CC[C@@H]2C([C@@H](O)C/C=C(\C)COC(C)=O)=CO[C@H](OC(C)=O)[C@@H]12`, the IC50 [1] was > 130 µM.

With `N#Cc1ccc(COC[C@H]2O[C@@H](n3c(NCc4ccc(Cl)c(Cl)c4)nc4c(N)ncnc43)[C@H](O)[C@@H]2O)cc1` the IC50 [12] was 0.11 µM.

Molecule `C=C1CC[C@H](OC(C)=O)C(=C)CC[C@@H]2C([C@H](C/C=C(\C)COC(C)=O)OC(C)=O)=CO[C@H](OC(C)=O)[C@@H]12` has an IC50 [1] of 20 µM.
